# From article PMC10349804, “Natural resveratrol analogs differentially target endometriotic cells into apoptosis pathways” (Scientific Reports, 2023)
# “And” between values parts separate entries of the source, which are not always exact repeats. Identical values can stand only once.
# What was measured:
# caspases-3/7 = assay: APO-One Homogenous Caspase-3/7 Assay in 12Z cells; type: cell-based, human
# Description: Resveratrol evoked a dose-dependent caspase-3/7 activation in 12Z cells (F = 2467.29, p < 0.0001). […] It was consistent with the results of CASP3 gene expression activation. […] There was a 2.8-fold activation of caspase 3/7 enzymes following treatment with piceatannol at a 200 μM dose, which complies with the CASP3 mRNA expression level.
# To quantitate the proteolytic activity of caspase 3 and 7, we performed an assay based on the proteolytic cleavage of the C-terminal side of the aspartate residue in the DEVD peptide substrate by caspase 3/7 and into the fluorescent rhodamine 110. Caspase 3/7 activity was determined using the APO-One Homogenous Caspase-3/7 Assay (Promega Corporation, Wisconsin, USA) following the manufacturer's instructions. The obtained data were normalized to cellular protein content. The total protein was quantified by BCA assay (Pierce® BCA Protein Assay Kit, Thermo Scientific Inc., USA) according to the manufacturer's protocol.
# endometriotic 12Z cells [1] = assay: TUNEL assay of DNA fragmentation, flow cytometry; type: cell-based, human; details: 48 h
# Description: Cell death via apoptosis in 12Z cells after exposure to resveratrol and its natural derivatives was determined by detecting DNA fragmentation (Fig. 5). DNA degradation was correlated in a dose-dependent manner. […] Tunel-positive cell population in the 12Z cell culture treated with camptothecin was estimated at 32.5%, compared to 0.6% in the vehicle-treated control culture.
# The detection of DNA fragmentation in 12Z cells was performed using the terminal deoxynucleotidyl-transferase-mediated dUTP nick end labeling (TUNEL) assay with In Situ Cell Death Detection Kit (Roche Diagnostics, Indianapolis, IN, USA). The test detects DNA breakage that is identified by terminal deoxynucleotidyl transferase. After treatment, the harvested cells were fixed in 4% paraformaldehyde and permeabilized in 0.1% Triton X-100. After washing in PBS, cells were subjected to TUNEL labeling with fluorescein-labeled dUTP and terminal deoxynucleotidyl transferase mixture. Cells were analyzed by flow cytometry using an Amnis™ FlowSight™ flow cytometer.
# [2] = tested on: endometriotic epithelial 12Z cells; assay: MTT reduction assay, cell viability; type: cell-based, human; details: for IC10 / IC50: 12Z cells, 48-h incubation; for IC50: Homo sapiens; for cytotoxicity in 12Z versus T HESC cells, comparing IC50 values: 48 h
# Description: (§1) The effect of resveratrol and its natural analogs on the viability of endometriotic epithelial 12Z cells and endometrial stromal T HESC cells was assessed using the MTT assay. Table 1 presents the IC10 and IC50 values (the inhibitor concentration required for 10% and 50% reduction in […]) obtained after 48-h incubation with the tested compounds. […] The cytotoxicity of resveratrol and pterostilbene to 12Z cells was not markedly different. T HESC and 12Z cells varied in susceptibility to the treatment with stilbenes tested, as evidenced by the cytotoxic doses shown in Table 1. […] Similarly, resveratrol evoked much weaker cytotoxic effects in T HESC cells than in 12Z cells. Polydatin at concentrations up to 400 µM was not cytotoxic to the T HESC cells, while at a dose of 86.76 µM, it induced the first cytotoxic symptoms in 12Z cells. […] The increased susceptibility of endometriotic 12Z cells than endometrial T HESC cells to resveratrol and its natural analogs was consistent in both assays (Fig. 1).
# (§2) The immortalized human endometriotic epithelial cells (12Z), derived from peritoneal endometriosis lesions, were obtained from Applied Biological Materials Inc. (Richmond, Canada). The 12Z cells were cultured in Dulbecco's Modified Eagle Medium/Nutrient Mixture F-12 (DMEM/F12), containing 10% fetal bovine serum (FBS) and 50 mg/L gentamycin. American Type Culture Collection (ATCC, Manassas, VA, USA) was the source for human endometrial stromal cells immortalized by telomerase (T HESC, CRL-4003). The cells were maintained routinely in phenol red-free DMEM/F12 supplemented with 10% charcoal/dextran treated FBS, 1% ITS + 1, and 50 mg/L gentamycin, at 37 °C and 5% CO2. Both cell lines were negative for mycoplasma contamination; mycoplasma-free cells were confirmed repeatedly during the study.
# (§3) Cells were seeded at a density of 0.15 × 10^5 cells/cm^2 in 6-well plates. The 24-h cell cultures were treated with resveratrol and its derivatives for 48 h under standard culture conditions. Camptothecin was applied as a reference apoptosis inducer; its final concentrations were set to 5 µM and 50 µM.
# (§4) Cell viability and metabolic activity were determined using the MTT colorimetric assay, according to the protocol described in previous studies. Based on the obtained data, the dose–response curves were plotted, and inhibitory concentrations (IC) were calculated. In addition, cell proliferation was measured using the alamarBlue™ Cell Viability Reagent (Invitrogen, Carlsbad, CA, USA) according to the manufacturer's protocol. Fluorescence was measured using a Tecan M200 Infinite microplate reader (Tecan Group Ltd., Männedorf, Switzerland).
# [3] = tested on: endometrial stromal T HESC cells; assay: MTT reduction assay, cell viability; type: cell-based, human; details: for IC50: Homo sapiens; for IC50 / IC10: T HESC cells, 48-h incubation, MTT
# Description: as §1, §2, §3, §4
# [4] = tested on: BAX, FAS, CASP3, CASP8, and CASP9 genes; assay: Real-time PCR, proapoptotic gene panel in 12Z cells; type: cell-based, human
# Excerpt: (§5) Figure 7 Effect of resveratrol and its analogs on the mRNA expression of BCL2, BCL2L1, BAX, FAS, CASP3, CASP8, and CASP9 genes in endometriotic 12Z cells, assessed by real-time PCR. Data were normalized against β-actin and expressed as relative mRNA expression (-fold of control). The values represent the means (n = 3) ± SD. Significant differences *p < 0.05; **p < 0.01; ***p < 0.001 compared to vehicle control.
# The FAS overexpression depended on the concentration of stilbenes, reaching a relative expression up to tenfold higher in treated endometriotic cells. The role of proteases in resveratrol-, pterostilbene-, and piceatannol-induced apoptosis was also indicated by the upregulation of well-known initiator caspases of the mitochondrial and death receptor apoptotic pathways such as caspases 8, 9 and executioner caspase 3 (Fig. 7).
# Gene expression analysis was carried out according to the previously described protocol. TRI reagent was applied for total RNA isolation, synthesis cDNA Transcriptor First-Strand kit (Roche Diagnostics GmbH, Mannheim, Germany) for first-strand cDNA synthesis, and SYBR® Select Master Mix (Life Technologies, Carlsbad, CA, USA) for real-time PCR. […] Relative mRNA expression was shown as fold change calculated using the 2^−ΔΔCt method compared with control cells.
# endometriotic 12Z cells [5] = assay: Annexin V/PI double staining, flow cytometry; type: cell-based, human; details: 200 µM, 48 h
# Description: After treating endometriotic 12Z cells with stilbenes, the phosphatidylserine externalization was measured by Annexin V and PI double staining (Fig. 4A). Examples of the single-cell images from sub-populations: live cells (Annexin V/PI-double negative), early apoptotic cells (Annexin V-positive/PI-negative), late apoptotic cells (Annexin V/PI-double positive), necrotic cells (Annexin V-negative/PI-positive) are presented in Fig. 4B.
# Figure 4 Flow cytometry analysis of endometriotic 12Z cells stained with PI and FITC-Annexin V. Cells were treated with resveratrol, pterostilbene, piceatannol, polydatin and their vehicle (0.5% ethanol) for 48 h. Camptothecin was used as a positive control. (A) Representative images of each distinct cellular subset. n = 4; scale bars = 20 μm. (B) Representative flow cytometry dot plots. (C) Summary of FITC-Annexin V and PI stained populations in 12Z cell cultures. […] The results are presented as means ± SD. *p < 0.05, **p < 0.01, ***p < 0.001 compared to vehicle control.
# Apoptosis was determined by Annexin V and propidium iodide (PI) double staining with the FITC Annexin V Apoptosis Detection kit (BD Pharmingen, Heidelberg, Germany) by flow cytometry according to the manufacturer's instructions. […] The cells were analyzed with an Amnis™ FlowSight™ flow cytometer (Luminex Corporation, TX, USA). […]
# BAX gene = assay: Real-time PCR, BAX mRNA expression in 12Z cells; type: cell-based, human; details: fold of control, normalized against β-actin
# Excerpt: The effect of resveratrol and its natural analogs on the expression of pro- or antiapoptotic regulators, was examined by real-time PCR. […] BAX overexpression was also documented in 12Z cells exposed to resveratrol.
# as §5
# Gene expression analysis was carried out according to the previously described protocol. TRI reagent was applied for total RNA isolation, synthesis cDNA Transcriptor First-Strand kit (Roche Diagnostics GmbH, Mannheim, Germany) for first-strand cDNA synthesis, and SYBR® Select Master Mix (Life Technologies, Carlsbad, CA, USA) for real-time PCR. The levels of transcripts were normalized using β-actin as an internal control, which was previously applied in 12Z cells. Relative mRNA expression was shown as fold change calculated using the 2^−ΔΔCt method compared with control cells.
# endometriotic 12Z cells [6] = assay: Cell cycle analysis by PI staining, flow cytometry; type: cell-based, human; details: 100 µM, 48 h
# Description: To investigate whether resveratrol and its analogs have interfered with cell cycle progression in endometriotic 12Z cells, we analyzed the cell cycle distribution by flow cytometry. […] The largest subpopulation of apoptotic cells was found in the cell cultures treated with resveratrol and pterostilbene at the concentration of 100 µM (31.2 ± 8.0% and 33.1 ± 9.7%, respectively) and piceatannol at a concentration of 200 µM (45.1 ± 5. 6%).
# Cell cycle progression was analyzed by flow cytometry using PI staining. After treatment, 12Z cells were collected, washed with PBS, and fixed in 70% ethanol. The cells were then washed, resuspended in PBS, and stained with 50 μg/ml PI in the presence of 100 μg/ml RNase A. Cell cycle distribution was analyzed using a FACSCanto flow cytometer (Becton Dickinson, San Jose, CA, USA). Data analysis was performed with the FACS Diva software (Becton Dickinson).
# CASP3 gene = assay: Real-time PCR, caspase-3 mRNA expression in 12Z cells; type: cell-based, human; details: concentration not given
# Excerpt: as §5
# We analyzed the activation of caspases at the molecular and cellular levels. […] Caspase 3 expression in pterostilbene-induced apoptosis in endometriotic cells was much weaker, even though this compound generated the most significant number of DNA strand breaks. […] It has now been recognized that in response to apoptotic stimuli, mitochondria can also release caspase-independent cell death effectors such as apoptosis-inducing factor (AIF) and endonuclease G. Following release and translocation to the nucleus, AIF becomes an active executioner of the cell death by the initiation of large-scale DNA fragmentation^37. It is essential to realize that apoptosis evolved complex death pathways, which overlap with each other. […]
# Gene expression analysis was carried out according to the previously described protocol. […] Relative mRNA expression was shown as fold change calculated using the 2^−ΔΔCt method compared with control cells.
# epithelial 12Z cells = tested on: epithelial 12Z cells; set-up: method as in PMID 35361545; details: 100 µM, 48-h treatment; cited from earlier work
# [7] = tested on: endometrial stromal St-T1b cells; set-up: method as in PMID 35361545; details: 100 µM, 48-h treatment; cited from earlier work
# [8] = tested on: endometrial stromal cells derived from patients with endometriosis; set-up: method as in PMID 33083332, PMID 26782781; details: cited from earlier work
SMILES,caspase-3/7 activity increase (caspases-3/7; 200 µM),DNA strand breaks (TUNEL-positive cells) (endometriotic 12Z cells [1]; 100 µM),IC10 [2],IC50 [2] [µM],IC50 [3] [µM],IC10 [3],DNA strand breaks (TUNEL-positive cells) (endometriotic 12Z cells [1]; concentration not given) [%],"subpopulation of apoptotic cells (lower DNA content, subG1) (endometriotic 12Z cells [6]) [%]",caspase-3/7 activity increase (caspases-3/7; 100 µM),"cytotoxicity in 12Z versus T HESC cells, comparing IC50 values [2]",other results
"Oc1cc(O)cc(C=Cc2ccc(O)c(O)c2)c1 [Piceatannol, 3,3′,4,5′-tetrahydroxystilbene]",2.8 fold,49.6% and ~50%,167.50 ± 11.36 µM,224 ± 6.47,364 ± 17,222.68 ± 14.49 ^# µM,–,–,–,–,–
"OC[C@H]1O[C@@H](Oc2cc(O)cc(/C=C/c3ccc(O)cc3)c2)[C@H](O)[C@@H](O)[C@@H]1O [Polydatin, 3,4′,5-trihydroxystilbene-3-β-D-glucoside]",–,–,86.76 µM and 86.76 ± 10.01 µM,243 ± 22.5,> 400,> 400 µM,1.08,–,–,–,"mRNA transcripts of BAX, FAS, CASP3, CASP8, and CASP9 genes [4]: did not significantly increase; apoptosis stage induced (Annexin V/PI) (endometriotic 12Z cells [5]; 50 µM, 100 µM): increased population of early apoptosis cells without induction of late apoptosis; caspase 3/7 activity change (caspases-3/7; concentration not given): not significantly changed; cytotoxicity to T HESC cells ([3]; concentrations up to 400 µM): not cytotoxic"
"COc1cc(C=Cc2ccc(O)cc2)cc(OC)c1 [Pterostilbene, 3,5-dimethoxy-4′-hydroxystilbene]",inhibited their activity,–,29.34 ± 4.46 µM,73.9 ± 6,145 ± 7.71,113.79 ± 5.11 ^## µM,–,33.1 ± 9.7,modestly activated,almost twofold lower,BAX mRNA expression increase (BAX gene; 100 µM): approximately 16 fold; treated cells classified as apoptotic cells (endometriotic 12Z cells [5]): approximately 94%; DNA strand breaks (TUNEL-positive cells) (endometriotic 12Z cells [1]; 200 µM): 62.6%
Oc1ccc(/C=C/c2cc(O)cc(O)c2)cc1 [Resveratrol],–,42.8%,8.99 ± 4.29 µM,49.3 ± 11.4,251 ± 1.58,160.35 ± 7.05 µM,–,31.2 ± 8.0,10.3 fold,fivefold higher,"BAX mRNA expression increase (BAX gene; 50 µM): approximately sevenfold; caspase-3 mRNA expression upregulation (CASP3 gene): 7.3 fold; reduction of cell viability (epithelial 12Z cells): 45.4%; reduction of cell viability [7]: 49.2%; endometriotic stromal cell viability (reduced to) ([8]; 200 μM): approximately 50%; influence on viability of endometrial stromal cells ([8]; concentrations up to 100 μM, 48-h treatment): did not influence the viability"
"CC[C@@]1(O)C(=O)OCc2c1cc1n(c2=O)Cc2cc3ccccc3nc2-1 [camptothecin, reference compound]",–,–,–,–,–,–,32.5,–,–,–,–
